Laboratory results from a compilation of properties of binary mixtures (doi:10.1016/j.jct.2022.106952).

Assay: xn = mol fraction of the nth substance listed
Conditions: 101.3 kPa

CCCC[n+]1ccn(C)c1.F[P-](F)(F)(F)(F)F + CCCCCCCCN1CCCC1=O
x1 = 1
Conditions | speed of sound [m/s]
308.15 K | 1419.8
313.15 K | 1408.2
318.15 K | 1396.8
323.15 K | 1385.6

CCCCCCCCN1CCCC1=O + CCCC[n+]1ccn(C)c1.F[P-](F)(F)(F)(F)F
speed of sound [m/s]
Conditions | 303.15 K | 308.15 K | 313.15 K | 318.15 K | 323.15 K
x2 = 0 | 1433.6 | 1416.3 | 1399.1 | 1382.1 | 1365.2
x2 = 0.0531 | 1430 | 1413.2 | 1396.4 | 1379.8 | 1363.3
x2 = 0.1034 | 1425.4 | 1408.9 | 1392.5 | 1376.3 | 1360.2
x2 = 0.1513 | 1421.4 | 1405.2 | 1389.2 | 1373.3 | –
x2 = 0.2034 | 1417.6 | 1401.8 | 1386.2 | 1370.7 | 1355.3
x2 = 0.3009 | 1412.1 | – | 1382 | 1367.1 | 1352.4
x2 = 0.405 | – | 1393.9 | 1379.6 | 1365.4 | 1351.4
x2 = 0.5042 | – | 1393.1 | 1379.4 | 1365.8 | 1352.3
x2 = 0.5996 | 1407.7 | – | – | 1367.9 | –
x2 = 0.6991 | 1410.4 | 1397.4 | 1384.6 | 1372.1 | 1359.6
x2 = 0.8029 | 1415.4 | 1402.9 | 1390.6 | – | 1366.5
x2 = 0.8451 | – | 1405.7 | – | 1381.7 | 1369.9
x2 = 0.8927 | 1421.5 | 1409.4 | 1397.5 | – | 1374.2
x2 = 0.9513 | 1426.6 | 1414.7 | 1403 | 1391.4 | 1380.1
